Kd and IC50 data for three molecules are collected here from PMC6899576, “Structure‐Based Screening of Tetrazolylhydrazide Inhibitors versus KDM4 Histone Demethylases” (Chemmedchem, 2019).

SMILES strings stand for the structures.

In one assay the target is T1, KDM4D (Homo sapiens, UniProt Q6B0I6).
T1 construct: catalytic core, residues 1-342 (11-342 visible in crystals); pQTEV N-terminal His6 tag removed by TEV protease; E. coli
T1 sequence (Q6B0I6 1-342): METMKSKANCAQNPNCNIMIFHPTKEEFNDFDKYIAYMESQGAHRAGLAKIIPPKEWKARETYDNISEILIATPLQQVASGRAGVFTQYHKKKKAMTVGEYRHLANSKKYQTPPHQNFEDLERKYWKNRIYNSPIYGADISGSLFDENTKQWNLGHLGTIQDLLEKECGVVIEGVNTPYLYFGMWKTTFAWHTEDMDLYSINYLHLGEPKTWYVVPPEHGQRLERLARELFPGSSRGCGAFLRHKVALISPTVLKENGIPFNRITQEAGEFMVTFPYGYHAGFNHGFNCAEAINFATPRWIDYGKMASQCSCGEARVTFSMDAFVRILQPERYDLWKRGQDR
The experiment in a line: isothermal titration calorimetry. The class given is binding. From the text: isothermal titration calorimetry on KDM4D
In general terms: Isothermal titration calorimetry measures the heat released or taken up as one component is titrated into another.

For another assay, the target named is T2, KDM4A (Homo sapiens, UniProt O75164).
T2 construct: catalytic domain, residues 1-359; pQTEV N-terminal His6 tag removed by TEV protease
T2 sequence (O75164 1-359): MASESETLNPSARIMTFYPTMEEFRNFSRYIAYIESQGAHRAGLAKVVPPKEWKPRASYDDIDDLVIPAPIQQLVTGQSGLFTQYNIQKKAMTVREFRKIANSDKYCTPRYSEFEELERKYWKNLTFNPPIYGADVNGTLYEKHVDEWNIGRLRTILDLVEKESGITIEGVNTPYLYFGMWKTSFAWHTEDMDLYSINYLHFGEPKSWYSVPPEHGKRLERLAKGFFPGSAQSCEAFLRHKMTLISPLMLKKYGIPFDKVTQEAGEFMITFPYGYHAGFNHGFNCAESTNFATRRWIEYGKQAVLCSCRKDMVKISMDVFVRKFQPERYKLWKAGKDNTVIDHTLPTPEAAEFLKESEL
The experiment in a line: LANCE Ultra antibody-based demethylase assay. Format: biochemical. The source says: LANCE Ultra antibody-based demethylase assay on KDM4A

With `NNC(=O)Cc1nnn[nH]1` [compound 1], the Kd (usually the free concentration of one partner at which half of the binding sites on the other are occupied at equilibrium, for simple one-to-one binding) at KDM4D came to 2.3 ± 0.9 µM.
For the molecule `NNC(=O)c1ccc(-c2nn[nH]n2)cc1` [compound 6], on KDM4A, the midpoint of inhibition, the IC50, lay at 216 ± 33 µM.
Regarding `NNC(=O)c1cccc(-c2nn[nH]n2)c1` [compound 7], half-maximal inhibition at KDM4A (IC50) required 195 ± 39 µM. The Kd at KDM4D turned out to be 41 ± 15 µM.
